13 compounds from patent US12098139B2, “Chemokine receptor modulators and uses thereof” (RAPT Therapeutics, Inc., priority 2018, dated 2024) can be followed below.

What is called IC50 is the concentration that inhibits the measured activity by half.

Where only a bound is given, the exact number is not on record here.

In the first assay the test system is ovalbumin-induced pulmonary inflammation. Kind of assay: Murine model of ovalbumin-induced pulmonary inflammation (BALF cell counts and mediators). In kind it is in vivo, mouse (female Balb/c). The conditions noted are these: 3 mg/kg p.o. daily; 24 hours after last ovalbumin challenge; vs OVA group. Here is the method: A study was performed to investigate the effects of daily oral administration of the compound 2-((R)-3-(1-(1-((R)-1-(2,4-Dichlorophenyl)ethyl)-3-(cyano)-1H-pyrazolo[3,4-b]pyrazin-6-yl)azetidin-3-yl)piperidin-1-yl)ethan-1-ol (FLX-A-12) (disclosed in US Patent Publication 2018-0072740 published Mar. 15, 2018) and the compound (1R,3r)-3-((R)-3-(1-(5-chloro-4-(((R)-1-(2,4-dichlorophenyl)ethyl)amino)-6-methylpyrimidin-2-yl)azetidin-3-yl)piperidin-1-yl)-1-methylcyclobutane-1-carboxylic acid (FLX-B-10) (disclosed in Example 38 herein) on the level of lung eosinophilia in a murine model of ovalbumin-induced pulmonary inflammation. An automated system of haematological cellular analysis (DASIT Sysmex XT-2000iV) was used to perform total and differential cell counts and assess the degree of ovalbumin challenge-induced pulmonary eosinophilia. FLX-A-12 and FLX-B-10 were administered daily for five days at the doses of 50 and 30-100 mg/kg respectively, and eosinophilic inflammation was measured 24 hours after the last ovalbumin challenge. Dexamethasone was included as a positive reference substance (3 mg/kg p.o. daily). On days 20-23 inclusive, mice received vehicle (30% PG in water), reference compound (Dexamethasone, 3 mg/kg) and test compounds (FLX-A-12 at 50 mg/kg and FLX-B-10 at 30 and 100 mg/kg), 1 hr prior ovalbumin challenge via the p.o. route. In addition, the test compounds (FLX-A-12 and FLX-B-10) were dosed on day 19 24 hr prior to the dosing on day 20.
FLX-A-12 was formulated at the concentration of 5 mg/mL (corresponding to the dose of 50 mg/kg in a dose volume of 10 mL/kg) in 30% PG in water. The doses of FLX-B-10 (30 and 100 mg/kg) were prepared by dissolving 3 and 10 mg/ml of the compound respectively in 30% PG in water at a dose volume of 10 ml/kg. The dose of Dexamethasone (3 mg/kg) was prepared by dissolving 0.3 mg/mL of the compound in 30% PG in water at a dose volume of 10 ml/kg.
The effects of FLX-A-12 and FLX-B-10 were assessed in the ovalbumin mouse model of pulmonary inflammation. The study was performed in female Balb/c mice, and included the following 6 treatment groups (n=10/group): (i) Vehicle group: challenged with saline and dosed with compound Vehicle, 1 hr before challenge; (ii) OVA/Vehicle group (control): challenged with ovalbumin and dosed with compound Vehicle, 1 hr before challenge; (iii) OVA/FLX-A-12 50 mg/kg (p.o.): challenged with ovalbumin and dosed with FLX-A-12, 1 hr before challenge; (iv) OVA/FLX-B-10 30 mg/kg (p.o.): challenged with ovalbumin and dosed with FLX-B-10, 1 hr before challenge; (v) OVA/FLX-B-10 100 mg/kg (p.o.): challenged with ovalbumin and dosed with FLX-B-10, 1 hr before challenge; and (vi) Dexamethasone 3 mg/kg (p.o.) group: challenged with ovalbumin and dosed with Dexamethasone, 1 hr before challenge.
The eosinophilic inflammation induced by ovalbumin-challenge (i.n.) was measured as cell count increase in bronchoalveolar lavage fluid (BALF) using an automated system of haematological cellular analysis (DASIT Sysmex XT-2000iV) at 24 hours after the last OVA-challenge. The effects of the test compounds were evaluated as ability to decrease the eosinophilic inflammation with respect to the OVA group.
For antigen sensitization, on day 1, animals received 10 μg of OVA in 2 mg of Aluminium hydroxide hydrate (AlOH3) at a dose volume of 200 μl per mouse subcutaneously (s.c.). On day 14, all animals got a second (boost) s.c. injection with the same dose of Alum/OVA as above.
On days 20-23 inclusive, mice received vehicle, 30% PG in water, reference compound (Dexamethasone 3 mg/kg) and test compounds (FLX-A-12 at 50 mg/kg and FLX-B-10 at 30 and 100 mg/kg), 1 hr prior OVA challenge via the p.o. route. In addition, test compounds (FLX-A-12 and FLX-B-10) were dosed on day 19, 24 hr prior to the dosing on day 20. All compounds were administered at a dose volume of 10 ml/kg. Dose volumes were calculated based on individual animal weight. […]
As for `C[C@@H]1C[C@H]2[C@@H]3CCC4=CC(=O)C=C[C@]4(C)[C@@]3(F)[C@@H](O)C[C@]2(C)[C@@]1(O)C(=O)CO` [Dexamethasone, dexamethasone, reference compound], the “percentage of reduction in the eosinophilic cell count in BALF” value is given as 92%.

The assay is the same for the next values; noted with them: 50 mg/kg p.o.; vs OVA group (FIG. 3).
`C[C@H](c1ccc(Cl)cc1Cl)n1nc(C#N)c2ncc(N3CC([C@H]4CCCN(CCO)C4)C3)nc21` [FLX-A-12, 2-((R)-3-(1-(1-((R)-1-(2,4-Dichlorophenyl)ethyl)-3-(cyano)-1H-pyrazolo[3,4-b]pyrazin-6-yl)azetidin-3-yl)piperidin-1-yl)ethan-1-ol, reference compound]: the “IL-5 levels in BALF” value was “significantly reduced”.

The next assay concerns the target T1, hCCR4 (Chem5-hCCR4 cells) (Homo sapiens, UniProt P51679).
T1 sequence (P51679 1-360): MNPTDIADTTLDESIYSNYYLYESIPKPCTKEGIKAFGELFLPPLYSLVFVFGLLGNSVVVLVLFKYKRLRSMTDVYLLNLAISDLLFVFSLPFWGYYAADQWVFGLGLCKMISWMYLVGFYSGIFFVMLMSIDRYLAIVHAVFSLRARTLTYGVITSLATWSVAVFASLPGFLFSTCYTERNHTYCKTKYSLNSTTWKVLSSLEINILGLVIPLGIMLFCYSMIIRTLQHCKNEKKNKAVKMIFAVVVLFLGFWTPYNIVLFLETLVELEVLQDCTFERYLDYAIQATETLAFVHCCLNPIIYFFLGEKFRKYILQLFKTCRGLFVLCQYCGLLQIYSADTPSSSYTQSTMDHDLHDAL
Briefly: Calcium flux assay (CCL22-stimulated, FLIPR Calcium 6 dye). In kind it is cell-based. The conditions noted are these: Table 5, CCL22 1.5 nM, read-out: Potency (IC50). In outline: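 Chem5-hCCR4 cells were serum-starved 2 h and loaded 2 h with Calcium 6 dye plus 2.5 mM probenecid. They were then preincubated 1 h at 37 °C with compound (0.5% DMSO). CCL22 was added from a 7.5 nM working solution (5× EC80), and ΔF/Fmin at 485/525 nm was fitted 4-parameter for IC50.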
A general note: Calcium flux is commonly read through the fluorescence of an indicator in the cells.
Consider `C[C@@H](Nc1nc(N2CC([C@H]3CCCN([C@H]4C[C@@H](C(=O)O)C4)C3)C2)nc2ccc(F)cc12)c1ccc(Cl)cc1Cl` [Example 66, 3-[(1S,3R)-3-[1-[4-[[(1R)-1-(2,4-dichlorophenyl)ethyl]amino]-6-fluoro-quinazolin-2-yl]azetidin-3-yl]-1-piperidyl]cyclobutanecarboxylic acid; 2,2,2-trifluoroacetic acid], for which the IC50 is under 100 nM.
Still for that read-out and setting: the value for `C[C@@H](Nc1nc(N2CC([C@H]3CCCN([C@H]4C[C@](C)(C(=O)O)C4)C3)C2)ncc1C(O)C1CC1)c1ccc(Cl)cc1Cl` (stereo partly drawn) [Example 70, 3-[(3R)-3-[1-[5-[cyclopropyl(hydroxy)methyl]-4-[[(1R)-1-(2,4-dichlorophenyl)ethyl]amino]pyrimidin-2-yl]azetidin-3-yl]-1-piperidyl]-1-methyl-cyclobutanecarboxylic acid; 2,2,2-trifluoroacetic acid] was under 100 nM; that for `CCC(O)c1cnc(N2CC([C@H]3CCCN([C@H]4C[C@](C)(C(=O)O)C4)C3)C2)nc1N[C@H](C)c1ccc(Cl)cc1Cl` (stereo partly drawn) [Example 73, 3-[(3R)-3-[1-[4-[[(1R)-1-(2,4-dichlorophenyl)ethyl]amino]-5-(1-hydroxypropyl)pyrimidin-2-yl]azetidin-3-yl]-1-piperidyl]-1-methyl-cyclobutanecarboxylic acid; 2,2,2-trifluoroacetic acid] was under 100 nM.
With `CC(C)C(O)c1cnc(N2CC([C@H]3CCCN([C@H]4C[C@](C)(C(=O)O)C4)C3)C2)nc1N[C@H](C)c1ccc(Cl)cc1Cl` (stereo partly drawn) [Example 76, 3-[(3R)-3-[1-[4-[[(1R)-1-(2,4-dichlorophenyl)ethyl]amino]-5-(1-hydroxy-2-methyl-propyl)pyrimidin-2-yl]azetidin-3-yl]-1-piperidyl]-1-methyl-cyclobutanecarboxylic acid; 2,2,2-trifluoroacetic acid], the IC50 was under 100 nM.
Still for that read-out and setting: the value for `COC(C)c1cnc(N2CC([C@H]3CCCN([C@H]4C[C@](C)(C(=O)O)C4)C3)C2)nc1N[C@H](C)c1ccc(Cl)cc1Cl` (stereo partly drawn) [Example 79, 3-[(3R)-3-[1-[4-[[(1R)-1-(2,4-dichlorophenyl)ethyl]amino]-5-(1-methoxyethyl)pyrimidin-2-yl]azetidin-3-yl]-1-piperidyl]-1-methyl-cyclobutanecarboxylic acid; 2,2,2-trifluoroacetic acid] was under 100 nM; that for `C[C@@H](Nc1nc(N2CC([C@H]3CCCN(CCO)C3)C2)ncc1C(=O)N1CCCC1)c1ccc(Cl)cc1Cl` [Example 85, [4-[[(1R)-1-(2,4-dichlorophenyl)ethyl]amino]-2-[3-[(3R)-1-(2-hydroxyethyl)-3-piperidyl]azetidin-1-yl]pyrimidin-5-yl]-pyrrolidin-1-yl-methanone; 2,2,2-trifluoroacetic acid] was 100 to 500 nM.
As to `C[C@@H](Nc1nc(N2CC(C3CCCN([C@H]4C[C@@H](O)C4)C3C(=O)O)C2)ncc1Cl)c1ccc(Cl)cc1Cl` (stereo partly drawn) [Example 87, 3-[1-[5-chloro-4-[[(1R)-1-(2,4-dichlorophenyl)ethyl]amino]pyrimidin-2-yl]azetidin-3-yl]-1-(3-hydroxycyclobutyl)piperidine-2-carboxylic acid; 2,2,2-trifluoroacetic acid], the IC50 was under 100 nM.
Same read-out and setting: the value for `C[C@@H](Nc1nc(N2CC(C3CCCN(C4CC(CO)C4)C3C(=O)O)C2)ncc1Cl)c1ccc(Cl)cc1Cl` (stereo partly drawn) [Example 88, 3-[1-[5-chloro-4-[[(1R)-1-(2,4-dichlorophenyl)ethyl]amino]pyrimidin-2-yl]azetidin-3-yl]-1-[3-(hydroxymethyl)cyclobutyl]piperidine-2-carboxylic acid; 2,2,2-trifluoroacetic acid] was under 100 nM.
`C[C@@H](Nc1nc(N2CC([C@H]3CCCN([C@H]4C[C@@H](C(=O)O)C4)C3)C2)ncc1C#N)c1ccc(Cl)cc1Cl` [Example 93, 3-[(3R)-3-[1-[5-cyano-4-[[(1R)-1-(2,4-dichlorophenyl)ethyl]amino]pyrimidin-2-yl]azetidin-3-yl]-1-piperidyl]cyclobutanecarboxylic acid]: the IC50 lay within 100 to 500 nM.
Same read-out and setting: the result for `C[C@@H](Nc1nc(N2CC([C@H]3CCCN([C@H]4C[C@](C)(C(=O)O)C4)C3)C2)nc2ccccc12)c1ccc(Cl)cc1Cl` [Example 94, 3-[(1R,3R)-3-[1-[4-[[(1R)-1-(2,4-dichlorophenyl)ethyl]amino]quinazolin-2-yl]azetidin-3-yl]-1-piperidyl]-1-methyl-cyclobutanecarboxylic acid; 2,2,2-trifluoroacetic acid] reads under 100 nM; that for `C[C@@H](Nc1nc(N2CC([C@H]3CCCN([C@H]4C[C@@H](C(=O)O)C4)C3)C2)nc2ccccc12)c1ccc(Cl)cc1Cl` [Example 95, 3-[(1S,3R)-3-[1-[4-[[(1R)-1-(2,4-dichlorophenyl)ethyl]amino]quinazolin-2-yl]azetidin-3-yl]-1-piperidyl]cyclobutanecarboxylic acid; 2,2,2-trifluoroacetic acid], under 100 nM.
